Where “and” joins values, the source holds several entries; their conditions need not be identical. Equal entries are not always repeated. Positions of bridges follow the written chain, without caps; N, C: chain ends. Residues, ends and D or L forms follow the SMILES beside them. No end group written: not given here.
Legend:
Format in all cases: in vivo
Helicoverpa armigera = test: LC50 determination, cotton leaf bioassay as in Example 2
Spodoptera exigua = test: as above; conditions: individual test, logit analysis
Heliothis virescens [1] = test: Comparative insect bioassay on treated cotton leaves, neonate larvae in minipots; conditions: after three days; for corrected % kill: Abbott's formula corrected
Description: These were carried out between the synthetic peptide having the sequence depicted as SEQ ID No. 2 (also referred to as the GGK-445 peptide) and the insecticidal peptide obtainable from the fungus Paecilomyces farinosus (referred to as “445”) and described in International Patent Application Publication Number WO01/00841. This protein, having the sequence depicted as SEQ ID No. 41, was synthesised, purified and the N-terminal Glycine was acetylated.
(§1) Prior to the assay, twenty neonate Heliothis virescens larvae were gently brushed into each of three ‘minipot’ containers per treatment (i.e. three replicates per treatment). The peptide to be tested was diluted using sterile, deionised water to create a range of test concentrations for determination of a kill curve.
(§2) Three freshly excised cotton leaves per treatment had 0.05 ml of the appropriate peptide solution applied by pipette to the centre of the axial surface of each leaf. The droplet was then spread over a circular area in excess of the diameter of a minipot with a fine artists paint brush (a fresh paint brush being used for each compound to avoid contamination), the concentrations being applied from lowest to highest. The leaves were left in a fume cupboard just long enough for the surface deposit to dry, but care was taken to avoid excessive leaf wilting.
Once dry the leaves were placed, contaminated surface down over the appropriately labelled, pre-infested minipot and a lid snapped over it. The minipots were placed in plastic trays and placed in a controlled environment room at 25-27° C.
After three days the numbers of live larvae remaining were counted and percent mortality determined. Percent mortality for the peptide treatments was corrected in comparison with the water-treated control using the Abbott's formula. Damage to the leaf was also assessed and represented as percent feeding inhibition.

Heliothis virescens [2] = test: LC50 determination, cotton leaf bioassay as in Example 2; conditions: individual test, logit analysis
Description: as §1, §2
Once dry the leaves were placed, contaminated surface down over the appropriately labelled, pre-infested minipot and a lid snapped over it. […]
After three days the numbers of live larvae remaining were counted and percent mortality determined. […] Damage to the leaf was also assessed and represented as percent feeding inhibition.
Mean LC50 values were determined for the synthetic peptide, GGK-445, having the amino acid sequence designated in SEQ ID No. 2. […]

Spodoptera littoralis = test: as above
[3] = individual test, logit analysis

| Compound | % feeding reduction compared to control (Heliothis virescens [1]; dose 0.15 ppm) [%] | % feeding reduction compared to control (Heliothis virescens [1]; dose 0.46 ppm) [%] | % feeding reduction compared to control (Heliothis virescens [1]; dose 1.37 ppm) [%] | % feeding reduction compared to control (Heliothis virescens [1]; dose 4.12 ppm) [%] | % feeding reduction compared to control (Heliothis virescens [1]; dose 12.35 ppm) [%] | % feeding reduction compared to control (Heliothis virescens [1]; dose 37.04 ppm) [%] | % feeding reduction compared to control (Heliothis virescens [1]; dose 111.11 ppm) [%] | % feeding reduction compared to control (Heliothis virescens [1]; dose 333.33 ppm) [%] | % feeding reduction compared to control (Heliothis virescens [1]; dose 1000 ppm) [%] | further results |
| --- | --- | --- | --- | --- | --- | --- | --- | --- | --- | --- |
| CC[C@H](C)[C@@H]1NC(=O)[C@@H]2CSSC[C@@H]3NC(=O)[C@H](CCCCN)NC(=O)[C@H](C(C)C)NC(=O)CNC(=O)[C@H](C)NC(=O)[C@@H]4CCCN4C(=O)[C@H]([C@@H](C)O)NC(=O)[C@@H](NC(=O)[C@@H](NC(=O)[C@H](CCCCN)NC(=O)CNC(=O)CN)[C@@H](C)CC)CSSC[C@H](NC(=O)[C@H](CSSC[C@@H](C(=O)N[C@@H](CCCNC(=N)N)C(=O)O)NC(=O)[C@H](C(C)C)NC(=O)[C@H](CCCCN)NC(=O)[C@H](CC(N)=O)NC(=O)[C@H](CC(N)=O)NC(=O)[C@H](C(C)C)NC(=O)CNC(=O)CNC1=O)NC(=O)[C@@H]1CCCN1C(=O)[C@H](CC(C)C)NC(=O)[C@H](C)NC(=O)[C@H](C)NC(=O)[C@@H]1CCCN1C3=O)C(=O)N1CCC[C@H]1C(=O)NCC(=O)N[C@@H](CC(C)C)C(=O)N[C@@H](CCCNC(=N)N)C(=O)N2 [GGK-445] (H-GGKICTPAGVKCPAALPCCPGLRCIGGVNNKVCR-OH; disulfide 5-19, 12-24, 18-33; N-terminus and C-terminus assumed) | 0.0 | 0.0 | 0.0 | 6.4 | 6.4 | 25.1 | 50.1 | 62.5 | 81.3 | LC50 (Helicoverpa armigera; [3]): 113.24 ppm and 421.93 ppm; mean LC50 (Helicoverpa armigera; mean of individual tests): 657.21 ppm; LC50 (Spodoptera exigua): 339.21 ppm and 972.5 ppm and 271.32 ppm; LC50 (Heliothis virescens [2]): 171.15 ppm; LC50 (Spodoptera littoralis; [3]): 283.26 ppm and 626.72 ppm and 371.71 ppm and 201.91 ppm; mean LC50 (Spodoptera littoralis; mean of individual tests): 343.75 ppm |
| Y1945F - synthesised, acetylated-445: insecticidal peptide obtainable from the fungus Paecilomyces farinosus, described in WO01/00841; SEQ ID No. 41, synthesised, purified, N-terminal Glycine acetylated (Ac-GKICTPAGVKCPAALPCCPGLRCIGGVNNKVCR; cysteine pairing not given here) | 0.0 | 0.0 | 0.0 | 43.8 | 68.8 | 68.8 | 83.8 | 88.8 | 91.3 | corrected % kill (Heliothis virescens [1]; dose 0.15 ppm): 0.0%; corrected % kill (Heliothis virescens [1]; dose 0.46 ppm): 5.6%; corrected % kill (Heliothis virescens [1]; dose 1.37 ppm): 13.0%; corrected % kill (Heliothis virescens [1]; dose 4.12 ppm): 48.1%; corrected % kill (Heliothis virescens [1]; dose 12.35 ppm): 75.9%; corrected % kill (Heliothis virescens [1]; dose 37.04 ppm): 72.2%; corrected % kill (Heliothis virescens [1]; dose 111.11 ppm): 98.1%; corrected % kill (Heliothis virescens [1]; dose 333.33 ppm): 98.1%; corrected % kill (Heliothis virescens [1]; dose 1000 ppm): 100.0% |
